Results on 14 compounds are retold here after PubChem BioAssay AID1984 (Sanford-Burnham Center for Chemical Genomics, 2009).

As a reminder, the IC50 is the concentration needed to halve the response being measured.

Molecules are shown by their SMILES. Calls of active or inactive are those of the source.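 Rule for the calls: active = EGFP signal decrease of at least 30% at 10 µM or well 3 SD below plate mean, unless failing retest; inactive = the rest, including hits failing retest or dose response.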

Sequence of p/CIP-EGFP fusion (nuclear receptor coactivator 3, mouse) (Q05BA5 1-1403): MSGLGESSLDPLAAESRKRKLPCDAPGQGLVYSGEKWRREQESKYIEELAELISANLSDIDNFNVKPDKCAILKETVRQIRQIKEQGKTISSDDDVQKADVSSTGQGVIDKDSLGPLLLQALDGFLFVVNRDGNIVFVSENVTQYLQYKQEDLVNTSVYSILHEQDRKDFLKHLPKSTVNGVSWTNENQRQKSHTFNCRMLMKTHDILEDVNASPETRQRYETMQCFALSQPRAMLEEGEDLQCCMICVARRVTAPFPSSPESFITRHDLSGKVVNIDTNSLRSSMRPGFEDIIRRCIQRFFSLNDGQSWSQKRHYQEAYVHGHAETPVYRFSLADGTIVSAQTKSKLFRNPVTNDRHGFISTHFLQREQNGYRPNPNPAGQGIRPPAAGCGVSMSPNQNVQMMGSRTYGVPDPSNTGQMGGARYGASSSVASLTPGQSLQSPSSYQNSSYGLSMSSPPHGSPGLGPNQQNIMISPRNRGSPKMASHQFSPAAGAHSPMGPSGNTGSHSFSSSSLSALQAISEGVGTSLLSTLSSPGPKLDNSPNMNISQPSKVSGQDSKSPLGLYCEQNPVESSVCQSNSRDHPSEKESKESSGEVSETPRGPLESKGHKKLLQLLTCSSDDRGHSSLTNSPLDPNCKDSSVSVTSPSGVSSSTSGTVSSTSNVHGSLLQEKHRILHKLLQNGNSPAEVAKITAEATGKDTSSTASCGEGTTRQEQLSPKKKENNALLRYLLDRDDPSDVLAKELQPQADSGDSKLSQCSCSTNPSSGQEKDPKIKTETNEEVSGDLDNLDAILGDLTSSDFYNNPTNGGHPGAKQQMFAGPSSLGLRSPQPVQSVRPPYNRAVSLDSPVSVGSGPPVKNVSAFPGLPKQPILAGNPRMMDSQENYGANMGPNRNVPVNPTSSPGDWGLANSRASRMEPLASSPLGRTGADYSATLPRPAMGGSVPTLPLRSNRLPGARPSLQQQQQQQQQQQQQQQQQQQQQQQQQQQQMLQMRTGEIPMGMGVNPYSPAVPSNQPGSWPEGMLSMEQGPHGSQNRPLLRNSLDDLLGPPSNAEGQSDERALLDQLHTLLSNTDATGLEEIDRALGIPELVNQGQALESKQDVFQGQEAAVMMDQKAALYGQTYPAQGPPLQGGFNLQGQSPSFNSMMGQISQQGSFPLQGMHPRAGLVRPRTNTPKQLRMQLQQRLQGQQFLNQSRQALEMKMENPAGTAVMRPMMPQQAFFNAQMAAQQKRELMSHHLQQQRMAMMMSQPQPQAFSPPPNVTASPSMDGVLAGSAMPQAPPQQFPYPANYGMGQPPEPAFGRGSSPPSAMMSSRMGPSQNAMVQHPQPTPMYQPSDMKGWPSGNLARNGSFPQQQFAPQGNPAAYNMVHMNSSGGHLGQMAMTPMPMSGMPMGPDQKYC

The assay addresses p/CIP-EGFP fusion (nuclear receptor coactivator 3, mouse) (UniProt Q05BA5). Kind of assay: compounds lowering mouse p/CIP (NCOA3) protein levels – fluorescence, F442A cells, EGFP fusion, primary screen (AID 1984).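 Note: dose response run in MEF cells carrying p/CIP-EGFP rather than F442A.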 To be noted: 16 h.
`Cc1oc2c(c1C(=O)NCc1cccnc1)C(=O)c1ccccc1C2=O`: the half-maximal inhibitory concentration (IC50) was 4.3 µM.

Take `O=C1C(Nc2ccccc2)=C/C(=N/S(=O)(=O)c2cccs2)c2ccccc21`: the IC50 was 3.77 µM.

Regarding `O=C1C(Nc2ccc(O)cc2)=C/C(=N/S(=O)(=O)c2cccs2)c2ccccc21`, the IC50 was 2.69 µM.

With `COc1ccc(CS(=O)/C(Cl)=C(/Cl)C(=O)Nc2ccc(OC)nc2)cc1` (centres undefined), the IC50 was 16.6 µM.

Take `CCOC(=O)c1c(C)[nH]c2c1-c1ccccc1C(=O)C2=O`: the concentration for half-maximal inhibition (IC50) is 3.43 µM.

Regarding `Nc1ccc2c(c1)C(=O)C(=O)c1ccccc1-2`, the IC50 was 14.6 µM.

Take `CCCc1nc2c(=O)n(C)c(=O)nc-2n(C)n1`: the IC50 is 5 µM.

For `Cc1ccc(NC2=C/C(=N\S(=O)(=O)c3cccs3)c3ccccc3C2=O)c(C)c1`, the IC50 was 19.4 µM.

For `Cc1ccccc1NC1=C/C(=N\S(=O)(=O)c2cccs2)c2ccccc2C1=O`, the IC50 was 16.4 µM.

In the case of `CC1CCN(S(=O)(=O)c2ccc3c(c2)C(=NO)c2cc(S(=O)(=O)N4CCC(C)CC4)ccc2-3)CC1`, the IC50 was 2.3 µM.

On to `O=C1C(Cl)=C(NCCN2CCCCC2)C(=O)c2ccccc21`, for which the IC50 was 14.8 µM.

With `COc1ccc(NC(=O)/C(Cl)=C(/Cl)S(=O)Cc2ccc(Cl)cc2)cn1` (centres undefined), the IC50 result was “inactive”.

Take `CC(C)(C)c1cc[n+](C2=C([O-])c3ccccc3C(=O)/C2=N\S(=O)(=O)c2cccs2)cc1`: the IC50 was 27 µM.

With `CCOC(=O)N=Nc1c2ccccc2c2nc3no[nH]c3nc12`, the IC50 is 18.8 µM.
